In ChEMBL document CHEMBL1201862, “PubChem BioAssay data set” (2004):
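48-hour exposure; five concentrations; linearly interpolated endpoints. GI50: concentration for 50% inhibition of growth.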 Active and inactive are the calls of the source. No stated cut-off is given here; in the data, active = GI50 up to about 1.1 µM and inactive = higher.

Legend:
Experiment in all cases: NCI-60 cell line screen, 48 h
SK-MEL-28 = system: SK-MEL-28
SF-539 = system: SF-539
Hs-578T = system: Hs-578T
HCC 2998 = system: HCC 2998
DU-145 = system: DU-145
A498 = system: A498
RPMI-8226 = system: RPMI-8226
ACHN = system: ACHN
A549 = system: A549
SF-268 = system: SF-268
OVCAR-8 = system: OVCAR-8
UO-31 = system: UO-31
NCI-H460 = system: NCI-H460
T47D = system: T47D
RXF 393 = system: RXF 393
OVCAR-3 = system: OVCAR-3
PC-3 = system: PC-3
MOLT-4 = system: MOLT-4
COLO 205 = system: COLO 205
OVCAR-4 = system: OVCAR-4

Measured: GI50

N#Cc1c(N)nc(S)c(C#N)c1-c1ccccc1
inactive: SK-MEL-28 > 100 µM | SF-539 > 100 µM | Hs-578T > 100 µM | HCC 2998 > 100 µM | DU-145 > 100 µM | A498 > 100 µM | RPMI-8226 > 100 µM | ACHN > 100 µM | A549 > 100 µM | SF-268 > 100 µM | OVCAR-8 > 100 µM | UO-31 52.8 µM | NCI-H460 > 100 µM | T47D > 100 µM | RXF 393 > 100 µM | OVCAR-3 > 100 µM | PC-3 > 100 µM | MOLT-4 > 100 µM

CCOC(=O)c1c(N)nn2c1cc1cccccc12
inactive: SK-MEL-28 29.9 µM | SF-539 51.5 µM | Hs-578T 29.9 µM | HCC 2998 30 µM | DU-145 32.1 µM | A498 29.4 µM | RPMI-8226 18.3 µM | ACHN 27.9 µM | A549 36.8 µM | SF-268 24.5 µM | OVCAR-8 24.8 µM | COLO 205 31.9 µM | NCI-H460 20.1 µM | T47D 22.6 µM | RXF 393 6.14 µM | OVCAR-4 33.6 µM | OVCAR-3 28.2 µM | PC-3 23.6 µM | MOLT-4 25.7 µM

Brc1ccccc1/C=N\C12CC3CC(CC(C3)C1)C2
inactive: SK-MEL-28 > 100 µM | SF-539 15.5 µM | Hs-578T > 64.6 µM | HCC 2998 > 100 µM | DU-145 > 100 µM | A498 > 100 µM | RPMI-8226 3.31 µM | ACHN > 68.2 µM | A549 > 100 µM | SF-268 99.1 µM | OVCAR-8 > 100 µM | COLO 205 > 100 µM | UO-31 > 100 µM | NCI-H460 > 100 µM | T47D > 100 µM | RXF 393 97.9 µM | OVCAR-4 > 100 µM | OVCAR-3 23.8 µM | PC-3 43.2 µM | MOLT-4 4.75 µM

C/C=C\C(CC(=O)NCC(=O)c1c[nH]c2ccccc12)CC(=O)OC (centres undefined)
inactive: SK-MEL-28 > 100 µM | Hs-578T > 100 µM | HCC 2998 > 100 µM | DU-145 > 100 µM | A498 > 100 µM | RPMI-8226 > 100 µM | ACHN > 100 µM | A549 > 100 µM | SF-268 > 100 µM | OVCAR-8 > 100 µM | COLO 205 > 100 µM | UO-31 > 100 µM | NCI-H460 > 100 µM | T47D > 100 µM | RXF 393 > 100 µM | OVCAR-4 > 100 µM | OVCAR-3 > 100 µM | PC-3 > 100 µM | MOLT-4 > 100 µM

CCON1CC(C(=O)OC)=C(O)C1=O
inactive: SK-MEL-28 > 100 µM | Hs-578T > 100 µM | HCC 2998 > 100 µM | DU-145 > 100 µM | A498 > 100 µM | RPMI-8226 > 100 µM | ACHN > 100 µM | A549 > 100 µM | SF-268 > 100 µM | OVCAR-8 > 100 µM | COLO 205 > 100 µM | UO-31 > 100 µM | NCI-H460 > 100 µM | T47D > 100 µM | RXF 393 > 100 µM | OVCAR-4 > 100 µM | OVCAR-3 > 100 µM | PC-3 > 100 µM | MOLT-4 > 100 µM

Nc1nc(=O)n(C2CC(O)C(CO)O2)c2nc(-c3ccc(-c4ccccc4)cc3)cnc12 (centres undefined)
inactive: SF-539 30 µM | Hs-578T 36.3 µM | HCC 2998 41.9 µM | DU-145 > 100 µM | A498 > 100 µM | RPMI-8226 > 100 µM | ACHN > 100 µM | A549 > 100 µM | SF-268 30.7 µM | OVCAR-8 67.9 µM | COLO 205 > 100 µM | UO-31 > 100 µM | NCI-H460 > 100 µM | T47D 18.6 µM | RXF 393 31.2 µM | OVCAR-4 > 100 µM | PC-3 37.6 µM | MOLT-4 25.9 µM

CCCCN1C(=O)N(c2ccc(OCC)cc2)C2N(CCCC)C1C(C)(C)C2(C)C (centres undefined)
inactive: SK-MEL-28 32.1 µM | SF-539 16.7 µM | Hs-578T 18.6 µM | HCC 2998 51.3 µM | DU-145 30.1 µM | A498 35.2 µM | RPMI-8226 14.9 µM | ACHN 27.7 µM | A549 56.4 µM | SF-268 21.9 µM | OVCAR-8 32.3 µM | COLO 205 22.5 µM | UO-31 27.1 µM | NCI-H460 42.2 µM | T47D 22.4 µM | RXF 393 16.3 µM | OVCAR-4 37.8 µM | OVCAR-3 15.7 µM | PC-3 23.2 µM

CC1=NN(c2nc(N)nc(CO)n2)C(C)(C)C1
inactive: SK-MEL-28 > 100 µM | SF-539 > 100 µM | Hs-578T > 100 µM | HCC 2998 > 100 µM | DU-145 > 100 µM | A498 > 100 µM | RPMI-8226 > 100 µM | ACHN > 100 µM | A549 > 100 µM | SF-268 > 100 µM | OVCAR-8 > 100 µM | COLO 205 > 100 µM | UO-31 > 100 µM | T47D > 100 µM | RXF 393 > 100 µM | OVCAR-4 > 100 µM | OVCAR-3 > 100 µM | PC-3 > 100 µM | MOLT-4 > 100 µM

CC(C)[C@H]1NC(=O)[C@H]2N=C(O[C@@H]2C)[C@@H]2CCCN2C(=O)[C@H](Cc2ccccc2)NC(=O)[C@@H]2CSC(=N2)[C@@H](Cc2ccccc2)NC(=O)[C@@H]2CSC1=N2
inactive: SK-MEL-28 75.3 µM | SF-539 > 100 µM | Hs-578T > 100 µM | HCC 2998 21.7 µM | DU-145 > 100 µM | A498 > 100 µM | RPMI-8226 20 µM | ACHN > 100 µM | A549 84.5 µM | SF-268 > 100 µM | OVCAR-8 > 100 µM | COLO 205 > 100 µM | UO-31 59.8 µM | T47D > 100 µM | RXF 393 61.4 µM | OVCAR-4 38.2 µM | OVCAR-3 38.5 µM | PC-3 37.5 µM | MOLT-4 75.7 µM

N=C(N)SCCSC(=N)N
inactive: SK-MEL-28 > 100 µM | Hs-578T > 100 µM | HCC 2998 > 100 µM | DU-145 > 100 µM | A498 > 100 µM | RPMI-8226 > 100 µM | ACHN > 100 µM | A549 > 100 µM | SF-268 > 100 µM | OVCAR-8 > 100 µM | COLO 205 > 100 µM | UO-31 > 100 µM | NCI-H460 > 100 µM | T47D > 100 µM | RXF 393 > 100 µM | OVCAR-4 > 100 µM | OVCAR-3 > 100 µM | PC-3 > 100 µM | MOLT-4 > 100 µM
